Some test systems named below: MCF7 breast; SK-MEL-5 melanoma; IGROV1 ovarian; HOP-92 NSCLC; EKVX NSCLC; HT29 colon; SR leukemia; HCT-15 colon; K-562 leukemia; SF-268 CNS.
Common to all, as to assay: inhibition of tumour cell growth, NCI panel, 48 h

This note sets out measurements from PubChem BioAssay (NCI).

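Protocol summary: plate cells (96-well), add compound at 5 concentrations, incubate 48 h, interpolate endpoints linearly. GI50 = concentration required for 50% inhibition of growth. TGI marks complete inhibition of growth.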

For the molecule `O=C1OCC2=C1C(c1ccccc1)c1cc3c(cc1N2CCO)OCO3` (stereo not given), the GI50 in the test with MCF7 breast was 1.76 µM; in the test with SK-MEL-5 melanoma it was 2.78 µM; with IGROV1 ovarian it was 2.91 µM; with HOP-92 NSCLC it was 13.9 µM; in the test with EKVX NSCLC, 14 µM; in the test on HT29 colon it was 1.72 µM. In addition, the GI50 in the test on SR leukemia is 3.49 µM; with HCT-15 colon, 2.96 µM; in the test with K-562 leukemia, 1.91 µM; in the test with SF-268 CNS, 3.82 µM. The TGI in the test on MCF7 breast, with SK-MEL-5 melanoma, in the test on IGROV1 ovarian, with HOP-92 NSCLC, with EKVX NSCLC and in the test with HT29 colon was over 50 µM throughout. Also, the TGI in the test on SR leukemia, in the test with HCT-15 colon, in the test with K-562 leukemia and with SF-268 CNS was over 50 µM throughout.
Take `O=C(O)c1ccccc1/C=N/N=C1c2ccccc2-c2ccccc21`: the TGI with MCF7 breast, in the test with SK-MEL-5 melanoma, in the test on IGROV1 ovarian, with HOP-92 NSCLC, with EKVX NSCLC and in the test on HT29 colon was over 100 µM each time. Besides, the TGI is 95.5 µM in the test on SR leukemia, over 100 µM with HCT-15 colon, over 100 µM in the test on K-562 leukemia and 77.1 µM in the test with SF-268 CNS.
Consider `O=C(O)[C@@H](Cc1ccc2ccccc2c1)NC(=O)n1c2ccccc2c2ccccc21`, for which the GI50 with MCF7 breast was 2.42 µM; in the test on SK-MEL-5 melanoma it was 2.55 µM; with IGROV1 ovarian, 4.06 µM; in the test with HOP-92 NSCLC, 1.33 µM; in the test with EKVX NSCLC, 5.56 µM; with HT29 colon it was 3.08 µM. The GI50 in the test on SR leukemia was 4.12 µM; with HCT-15 colon, 3.29 µM; in the test on K-562 leukemia, 1.41 µM; in the test with SF-268 CNS it was 3.77 µM. Further, the TGI in the test with MCF7 breast was over 100 µM; in the test on SK-MEL-5 melanoma it was 7.27 µM; with IGROV1 ovarian, 80.7 µM; with HOP-92 NSCLC, 7.74 µM; in the test on EKVX NSCLC, 62.2 µM; with HT29 colon, 8.33 µM. The TGI with SR leukemia is over 100 µM; in the test on HCT-15 colon it was 28.6 µM; in the test on K-562 leukemia, over 100 µM; with SF-268 CNS, 36.2 µM.
With `O=C(Nc1ccc(Cl)c(Cl)c1)NS(=O)(=O)c1cnccc1Oc1ccc(F)cc1`, the GI50 was 2.37 µM in the test with MCF7 breast; 3.63 µM in the test with SK-MEL-5 melanoma; 2.69 µM with IGROV1 ovarian; 2.77 µM with HOP-92 NSCLC; 2.68 µM in the test with EKVX NSCLC; 3.63 µM in the test on HT29 colon. Further, the GI50 in the test on SR leukemia was 2.55 µM; in the test on HCT-15 colon, 3.32 µM; in the test with K-562 leukemia, 3.27 µM; in the test with SF-268 CNS, 4.48 µM. Besides, the TGI with MCF7 breast is 7.8 µM; in the test with SK-MEL-5 melanoma, 13.5 µM; with IGROV1 ovarian it was 8.59 µM; in the test with HOP-92 NSCLC, 8.47 µM; with EKVX NSCLC, 44.4 µM; in the test on HT29 colon, over 100 µM. For the same molecule, the TGI with SR leukemia is 10.2 µM; in the test with HCT-15 colon it was over 100 µM; in the test on K-562 leukemia, over 100 µM; with SF-268 CNS it was over 100 µM.
Regarding `COc1ccc(OC)c(Cn2cc3c(c2-c2ccccc2)CCc2cnoc2-3)c1`, the GI50 with MCF7 breast is 4.47 µM; in the test with SK-MEL-5 melanoma, 3.7 µM; in the test on IGROV1 ovarian, 6.11 µM; in the test on HOP-92 NSCLC it was 5.26 µM; with EKVX NSCLC, 6.9 µM; in the test with HT29 colon it was 3.15 µM. The GI50 in the test on SR leukemia is 2.62 µM; in the test on HCT-15 colon, 4 µM; in the test on K-562 leukemia it was 2.67 µM; in the test with SF-268 CNS it was 6.24 µM. In addition, the TGI with MCF7 breast is over 100 µM; in the test on SK-MEL-5 melanoma it was 40.3 µM; with IGROV1 ovarian, over 100 µM; in the test on HOP-92 NSCLC, over 100 µM; in the test on EKVX NSCLC it was over 100 µM; in the test on HT29 colon, over 100 µM. The TGI in the test with SR leukemia, with HCT-15 colon, in the test with K-562 leukemia and with SF-268 CNS was over 100 µM throughout.
Take `CC(=O)O[C@H]1CCc2c(cc(N)c3c2C(=O)C[C@]2(C)C([C@H](C)CCCC(C)C)CCC32C)C1(C)C` (stereo not given in full): the TGI in the test with MCF7 breast, in the test on SK-MEL-5 melanoma, in the test with IGROV1 ovarian, in the test with HOP-92 NSCLC, in the test with EKVX NSCLC and in the test on HT29 colon was over 100 µM each time. In addition, the TGI with SR leukemia, in the test on HCT-15 colon, with K-562 leukemia and in the test on SF-268 CNS was over 100 µM each time.
For the molecule `Nc1ccc(/C=C/C(=O)NCc2cc3cc(-c4ccc(C(=O)N5CCC(F)(F)CC5)cc4)cc(-c4ccc(F)cc4)c3o2)cn1`, the GI50 is 14.4 µM with MCF7 breast; 14.2 µM in the test with SK-MEL-5 melanoma; over 44.7 µM with IGROV1 ovarian; 28.3 µM in the test with HOP-92 NSCLC; over 100 µM in the test with EKVX NSCLC; 1.89 µM in the test with HT29 colon. In addition, the GI50 was 12.9 µM in the test on SR leukemia, 0.679 µM in the test on HCT-15 colon, 0.356 µM with K-562 leukemia and over 100 µM with SF-268 CNS. The TGI in the test with MCF7 breast, in the test with SK-MEL-5 melanoma, with IGROV1 ovarian, with HOP-92 NSCLC, with EKVX NSCLC and in the test with HT29 colon was over 100 µM throughout. The TGI with SR leukemia, in the test with HCT-15 colon, in the test on K-562 leukemia and in the test on SF-268 CNS was over 100 µM each time.
As for `COC(=O)C(/C(=N\O)C(=O)Nc1cccc(Cl)c1C)c1cnc2ccccc2n1` (stereo not given), the TGI with MCF7 breast, with SK-MEL-5 melanoma, with IGROV1 ovarian, in the test with HOP-92 NSCLC, in the test with EKVX NSCLC and in the test with HT29 colon was over 100 µM each time. Besides, the TGI with SR leukemia, with HCT-15 colon, in the test on K-562 leukemia and in the test with SF-268 CNS was over 100 µM each time.
